Counter-ions that a name gives are not always drawn.
These molecules were tested against T1, human EDG-1 (Homo sapiens, UniProt P21453) (assay: Assessment of an agonistic action by monitoring the intracellular calcium ion). Conditions: human EDG-1 gene over expression CHO cells; Fura2 intracellular Ca2+ increase; Concentration of Half-100 nM S1P Ca2+ release.
T1 construct: expressed in transfected cells; host or cells: CHO (Chinese Hamster Ovary) cells, cultured under Blasticidin selection
Assay type: cell-based
Protocol: (1) Assessment of an Agonistic Action by Monitoring the Intracellular Calcium Ion
The assessment of an agonistic action for the receptor was carried out using the human EDG-1 gene over expression cells (Chinese Hamster Ovary, CHO). EDG-1 expression cells were cultured with Ham's F12 (GIBCO BRL, No. 11765-047) medium containing 10% FBS, Penicillin/Streptomycin and Blasticidin (5 μg/mL). First, in order to load Fura2-AM (Dojindo, No. 348-05831) in the cells, the cells were incubated by 5 μM Fura2-AM solution (Ham's F12 medium containing 10% FBS, 20 mM HEPES pH7.4, 2.5 mM Probenecid (Sigma, catalog No.P-8761)) at 37° C. for 60 min. Next, the cells were washed once by Hanks solution containing 20 mM HEPES pH7.4, 2.5 mM Probenecid and soaked in the Hanks solution until assay.
The plate was set on the fluorescence drug screening system (Hamamatsu photonics FDSS-2000). After measurement of the background signal for […], the solution of the assay compound was added. The test compounds were added at the final concentration range of between 0.1 nM and 10 μM as the final dimethyl sulfoxide (DMSO) concentration made to 1/1000 of the original solution. Fura2-Ca^2+ fluorescence excited at 340 nm and 380 nm was measured every 3 seconds at emission wavelength 500 nm. Intracellular Ca^2+ concentration was assessed with fluorescent ratio of excitation wavelength 340 nm and 380 nm. Agonistic activity was calculated as below, that is, the control value (A) was obtained by measuring the response of 100 nM S1P (BIOMOL:M9076) after adding DMSO to the well for the test compounds, and (A) was compared with the value (B) which is the difference of fluorescent ratio obtained by measuring response between the pre and post of test compounds added. Rate of intracellular Ca^2+ increase (%) was calculated as following equation. rate of increase (%)=(B/A)×100
Moreover, rate of increase was calculated at each concentration and EC50 (Concentration of Half—100 nM S1P Ca^2+ release) of each compound was calculated setting the maximal concentration of the compound giving the response corresponding to that of S1P at the concentration of 100 nM.

T1 sequence (P21453 whole entry): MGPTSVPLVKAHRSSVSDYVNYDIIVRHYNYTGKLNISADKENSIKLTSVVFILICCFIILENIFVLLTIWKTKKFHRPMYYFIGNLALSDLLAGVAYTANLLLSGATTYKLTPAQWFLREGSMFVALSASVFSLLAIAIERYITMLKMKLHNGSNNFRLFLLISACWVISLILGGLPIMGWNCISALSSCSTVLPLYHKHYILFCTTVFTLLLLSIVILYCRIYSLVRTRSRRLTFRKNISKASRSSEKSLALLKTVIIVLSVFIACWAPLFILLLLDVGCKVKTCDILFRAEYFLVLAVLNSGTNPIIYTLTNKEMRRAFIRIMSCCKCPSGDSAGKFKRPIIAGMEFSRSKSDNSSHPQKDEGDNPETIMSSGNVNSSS

Structure (SMILES)	EC50 [nM]
O=C(CCc1ccc(OCCCCCc2ccccc2)cc1)Nc1ccc(Cl)c(C(=O)O)c1 [Example 2(1), 2-chloro-5-[3-(4-(5-phenylpentyloxy)phenyl)propanoylamino]benzoic acid]	9
O=C(CCc1ccc(OCCCCCc2ccccc2)cc1)Nc1ccc(C(=O)O)c(C(=O)O)c1 [Example 2(3), 2-carboxy-5-[3-(4-(5-phenylpentyloxy)phenyl)propanoylamino]benzoic acid]	1.4
O=C(CCc1ccc(OCCCCCc2ccccc2)cc1)Nc1cc(Cl)c(Cl)c(C(=O)O)c1 [Example 9(6), 2,3-dichloro-5-[3-(4-(5-phenylpentyloxy)phenyl)propanoylamino]benzoic acid]	7.3
O=C(O)c1cncc(C(=O)NCCc2ccc(OCCCCCc3ccccc3)cc2)c1 [Example 16(3), 5-[2-(4-(5-phenylpentyloxy)phenyl)ethylaminocarbonyl]pyridine-3-carboxylic acid]	4.5

The remaining lines, values ahead:

EC50 [nM]	Structure (SMILES)
8.3	O=C(NCCc1ccc(OCCCCCc2ccccc2)cc1)c1ccc(Cl)c(C(=O)O)c1 [Example 16, 2-chloro-5-[2-(4-(5-phenylpentyloxy)phenyl)ethylaminocarbonyl]benzoic acid]
1.5	O=C(NCCc1ccc(OCCCCCc2ccccc2)cc1)c1ccc(C(=O)O)c(C(=O)O)c1 [Example 19, 2-carboxy-5-[2-(4-(5-phenylpentyloxy)phenyl)ethylaminocarbonyl]benzoic acid]
25	O=C(O)CNC(=O)CCc1ccc(CCCCCCc2ccccc2)cc1 [Example 28, 2-[3-(4-(6-phenylhexyl)phenyl)propanoylamino]acetic acid]
30	O=C(O)CCNCCc1ccc(OCCCCCc2ccccc2)cc1 [Example 32, 3-[2-(4-(5-phenylpentyloxy)phenyl)ethylamino]propanoic acid hydrochloride]

From US7179817B2, “Carboxylic acid derivatives and drugs containing the same as the active ingredient” (ONO Pharmaceutical Co., Ltd., priority 2001, dated 2007)
